Source: patent US10954269B2, “Anti-inflammatory tripeptides” (Dr. August Wolff Gmbh & Co. KG Arzneimittel, priority 2013, dated 2021)

What was measured:
Settings in all cases: substance 10^−9M
primary human T-cells = test: Cytokine secretion on protein level in activated primary human T-cells (13-plex FACS / Luminex, supernatant); assay type: cell-based
Method: (§1) Primary T-cells were isolated from peripheral blood from healthy volunteers and from secondary lymphatic organs from naïve C57BL/6 mice, respectively. The cells were stimulated with phorbol-12-myristate-13-acetate (PMA)/Ionomycin and interferon-gamma (IFN-γ), respectively, for 48 h to activate the cells. The activated cells release pro-inflammatory cytokines. In parallel a human (HaCaT) keratinocyte cell line was activated with PMA/Ionomycin and IFN-γ, respectively, too. […] At the same time release of anti-inflammatory IL-10 was inhibited. Two days after addition of PMA/Ionomycin and IFN-γ, respectively, the induction of IL-1 secretion was determined in the supernatant for proving that the cells are activated. […] The anti-inflammatory properties of the tripeptides were determined 48 h and 72 h following stimulation. A 13-plex-system based FACS analysis was used for showing the reduced secretion of pro-inflammatory cytokines in the supernatant. Data for IL-1, IL-2, IL-6, IL-12p70 IL-17, IFN-γ and TNF-α are considered to be most relevant. Thus, analysis of the anti-inflammatory properties of the tripeptides is preferably based on the results obtained for these analytes. […] Using this method the gene expression of pro-inflammatory markers like IL-6, IL-17, IFN-γ and TNF-α was determined.
(§2) In a third experiment murine and human T cells and HaCaT cells were stimulated with PMA/Ionomycin and treated with Examples 14, 15, 16 and 17 at 10^−7 M, 10^−9 M and 10^−11 M. Cytokine concentrations (IFN-γ, IL-17 and IL-10 for T cells and IFN-γ for HaCat) were assessed in the supernatants using the Luminex technology. Expression of genes coding for Il-1β, IL-6 and TNF-α was determined. […] Moreover, concentrations of pro-inflammatory cytokines IFN-γ and IL-17 was reduced in the supernatants whereas the concentration of anti-inflammatory cytokine IL-10 was increased. […]
(§3) For the biological assay two human cell lines of different origin were chosen to allow for translation of the results obtained. A HaCaT cell is a cell type belonging to an immortal human keratinocyte line used in scientific research. Its use in research allows for the characterization of human keratinocyte using a model that is reproducible and representing a human epithelial cell line. In contrast human T-lymphocytes (T-cells) are a type of lymphocyte (itself a type of white blood cell) that play a central role in cell-mediated inflammation/immunity.

[1] = system: human keratinocyte cell line (HaCaT); test: Cytokine secretion on protein level in activated human keratinocyte cell line HaCaT (13-plex FACS / Luminex, supernatant); assay type: cell-based
Method: as §1, §2, §3

primary murine T-cells = test: Cytokine secretion on protein level in activated primary murine T-cells (13-plex FACS / Luminex, supernatant); assay type: cell-based, C57BL/6 mice
Method: as §1
In a third experiment murine and human T cells and HaCaT cells were stimulated with PMA/Ionomycin and treated with Examples 14, 15, 16 and 17 at 10^−7 M, 10^−9 M and 10^−11 M. Cytokine concentrations (IFN-γ, IL-17 and IL-10 for T cells and IFN-γ for HaCat) were assessed in the supernatants using the Luminex technology. Expression of genes coding for Il-1β, IL-6 and TNF-α was determined. […] Moreover, concentrations of pro-inflammatory cytokines IFN-γ and IL-17 was reduced in the supernatants whereas the concentration of anti-inflammatory cytokine IL-10 was increased.
The anti-inflammatory and immunomodulatory effects of selected examples of the present invention were compared with common immunosuppressants. Thus, cells activated with PMA/Ionomycin and IFN-γ, respectively, were stimulated with MMF or dexamethasone. Following stimulation the secretion of pro-inflammatory cytokines was analyzed on protein and gene level (Table 9 and FIGS. 4-6).

[2] = primary human T-cells stimulated with IFN-γ
[3] = primary human T-cells stimulated with PBS
[4] = primary human T-cells stimulated with PMA/Ionomycin
[5] = HaCaT stimulated with PMA/Ionomycin
[6] = primary murine T-cells stimulated with IFN-γ
[7] = primary murine T-cells stimulated with PBS
[8] = primary murine T-cells stimulated with PMA/Ionomycin

Compound: COc1c(C)c2c(c(O)c1C/C=C(\C)CCC(=O)OCCN1CCOCC1)C(=O)OC2 [MMF, mycophenolate mofetil, reference compound]
- IL-1 cytokine concentration (primary human T-cells; [2]): 0 pg/mL
- IL-2 cytokine concentration (primary human T-cells; [2]): 0 pg/mL
- IL-4 cytokine concentration (primary human T-cells; [2]): 0 pg/mL
- IL-5 cytokine concentration (primary human T-cells; [2]): 0 pg/mL
- IL-6 cytokine concentration (primary human T-cells; [2]): 62.15 pg/mL
- IL-9 cytokine concentration (primary human T-cells; [2]): 0 pg/mL
- IL-10 cytokine concentration (primary human T-cells; [2]): 0 pg/mL
- IL-12 cytokine concentration (primary human T-cells; [2]): 0 pg/mL
- IL-13 cytokine concentration (primary human T-cells; [2]): 0 pg/mL
- IL-17 cytokine concentration (primary human T-cells; [2]): 0 pg/mL
- IL-22 cytokine concentration (primary human T-cells; [2]): 0 pg/mL
- TNF-α cytokine concentration (primary human T-cells; [2]): 0 pg/mL
- IFN-γ cytokine concentration (primary human T-cells; [3]): 0 pg/mL
- IL-1 cytokine concentration (primary human T-cells; [3]): 0 pg/mL
- IL-2 cytokine concentration (primary human T-cells; [3]): 39.68 pg/mL
- IL-4 cytokine concentration (primary human T-cells; [3]): 0 pg/mL
- IL-5 cytokine concentration (primary human T-cells; [3]): 0 pg/mL
- IL-6 cytokine concentration (primary human T-cells; [3]): 94.62 pg/mL
- IL-9 cytokine concentration (primary human T-cells; [3]): 28.13 pg/mL
- IL-10 cytokine concentration (primary human T-cells; [3]): 79.26 pg/mL
- IL-12 cytokine concentration (primary human T-cells; [3]): 0 pg/mL
- IL-13 cytokine concentration (primary human T-cells; [3]): 79.09 pg/mL
- IL-17 cytokine concentration (primary human T-cells; [3]): 71.42 pg/mL
- IL-22 cytokine concentration (primary human T-cells; [3]): 0 pg/mL
- TNF-a cytokine concentration (primary human T-cells; [3]): 53.91 pg/mL
- IFN-γ cytokine concentration (primary human T-cells; [4]): 9491.25 pg/mL
- IL-1 cytokine concentration (primary human T-cells; [4]): 505.05 pg/mL
- IL-2 cytokine concentration (primary human T-cells; [4]): 1498.52 pg/mL
- IL-4 cytokine concentration (primary human T-cells; [4]): 29.49 pg/mL
- IL-5 cytokine concentration (primary human T-cells; [4]): 309.88 pg/mL
- IL-6 cytokine concentration (primary human T-cells; [4]): 1198.6 pg/mL
- IL-9 cytokine concentration (primary human T-cells; [4]): 339.89 pg/mL
- IL-10 cytokine concentration (primary human T-cells; [4]): 814.79 pg/mL
- IL-12 cytokine concentration (primary human T-cells; [4]): 0 pg/mL
- IL-13 cytokine concentration (primary human T-cells; [4]): 1072.09 pg/mL
- IL-17 cytokine concentration (primary human T-cells; [4]): 1097.19 pg/mL
- IL-22 cytokine concentration (primary human T-cells; [4]): 0 pg/mL
- TNF-a cytokine concentration (primary human T-cells; [4]): 3987.21 pg/mL
- IL-1 cytokine concentration ([1]; HaCaT stimulated with IFN-γ): 0 pg/mL
- IL-2 cytokine concentration ([1]; HaCaT stimulated with IFN-γ): 0 pg/mL
- IL-4 cytokine concentration ([1]; HaCaT stimulated with IFN-γ): 33.01 pg/mL
- IL-5 cytokine concentration ([1]; HaCaT stimulated with IFN-γ): 0 pg/mL
- IL-6 cytokine concentration ([1]; HaCaT stimulated with IFN-γ): 239.05 pg/mL
- IL-9 cytokine concentration ([1]; HaCaT stimulated with IFN-γ): 0 pg/mL
- IL-10 cytokine concentration ([1]; HaCaT stimulated with IFN-γ): 0 pg/mL
- IL-12 cytokine concentration ([1]; HaCaT stimulated with IFN-γ): 0 pg/mL
- IL-13 cytokine concentration ([1]; HaCaT stimulated with IFN-γ): 0 pg/mL
- IL-17 cytokine concentration ([1]; HaCaT stimulated with IFN-γ): 58.48 pg/mL
- IL-22 cytokine concentration ([1]; HaCaT stimulated with IFN-γ): 0 pg/mL
- TNF-α cytokine concentration ([1]; HaCaT stimulated with IFN-γ): 0 pg/mL
- IFN-γ cytokine concentration ([1]; HaCaT stimulated with PBS): 0 pg/mL
- IL-1 cytokine concentration ([1]; HaCaT stimulated with PBS): 0 pg/mL
- IL-2 cytokine concentration ([1]; HaCaT stimulated with PBS): 0 pg/mL
- IL-4 cytokine concentration ([1]; HaCaT stimulated with PBS): 120.89 pg/mL
- IL-5 cytokine concentration ([1]; HaCaT stimulated with PBS): 0 pg/mL
- IL-6 cytokine concentration ([1]; HaCaT stimulated with PBS): 39.58 pg/mL
- IL-9 cytokine concentration ([1]; HaCaT stimulated with PBS): 0 pg/mL
- IL-10 cytokine concentration ([1]; HaCaT stimulated with PBS): 33.26 pg/mL
- IL-12 cytokine concentration ([1]; HaCaT stimulated with PBS): 0 pg/mL
- IL-13 cytokine concentration ([1]; HaCaT stimulated with PBS): 0 pg/mL
- IL-17 cytokine concentration ([1]; HaCaT stimulated with PBS): 0 pg/mL
- IL-22 cytokine concentration ([1]; HaCaT stimulated with PBS): 0 pg/mL
- TNF-α cytokine concentration ([1]; HaCaT stimulated with PBS): 0 pg/mL
- IFN-γ cytokine concentration [1, 5]: 0 pg/mL
- IL-1 cytokine concentration [1, 5]: 0 pg/mL
- IL-2 cytokine concentration [1, 5]: 0 pg/mL
- IL-4 cytokine concentration [1, 5]: 98.71 pg/mL
- IL-5 cytokine concentration [1, 5]: 0 pg/mL
- IL-6 cytokine concentration [1, 5]: 116.51 pg/mL
- IL-9 cytokine concentration [1, 5]: 0 pg/mL
- IL-10 cytokine concentration [1, 5]: 66.23 pg/mL
- IL-12 cytokine concentration [1, 5]: 0 pg/mL
- IL-13 cytokine concentration [1, 5]: 0 pg/mL
- IL-17 cytokine concentration [1, 5]: 0 pg/mL
- IL-22 cytokine concentration [1, 5]: 0 pg/mL
- TNF-α cytokine concentration [1, 5]: 0 pg/mL
- IL-1 cytokine concentration (primary murine T-cells; [6]): 100.02 pg/mL
- IL-2 cytokine concentration (primary murine T-cells; [6]): 79.63 pg/mL
- IL-4 cytokine concentration (primary murine T-cells; [6]): 59.48 pg/mL
- IL-5 cytokine concentration (primary murine T-cells; [6]): 254.61 pg/mL
- IL-6 cytokine concentration (primary murine T-cells; [6]): 111.95 pg/mL
- IL-10 cytokine concentration (primary murine T-cells; [6]): 936.45 pg/mL
- IL-13 cytokine concentration (primary murine T-cells; [6]): 0 pg/mL
- IL-17 cytokine concentration (primary murine T-cells; [6]): 61.58 pg/mL
- IL-21 cytokine concentration (primary murine T-cells; [6]): 0 pg/mL
- IL-22 cytokine concentration (primary murine T-cells; [6]): 55.98 pg/mL
- IL-27 cytokine concentration (primary murine T-cells; [6]): 40.8 pg/mL
- TNF-α cytokine concentration (primary murine T-cells; [6]): 33.64 pg/mL
- IFN-γ cytokine concentration (primary murine T-cells; [7]): 0 pg/mL
- IL-1 cytokine concentration (primary murine T-cells; [7]): 62.31 pg/mL
- IL-2 cytokine concentration (primary murine T-cells; [7]): 100.77 pg/mL
- IL-4 cytokine concentration (primary murine T-cells; [7]): 61.12 pg/mL
- IL-5 cytokine concentration (primary murine T-cells; [7]): 337.89 pg/mL
- IL-6 cytokine concentration (primary murine T-cells; [7]): 90.56 pg/mL
- IL-10 cytokine concentration (primary murine T-cells; [7]): 745.12 pg/mL
- IL-13 cytokine concentration (primary murine T-cells; [7]): 0 pg/mL
- IL-17 cytokine concentration (primary murine T-cells; [7]): 0 pg/mL
- IL-21 cytokine concentration (primary murine T-cells; [7]): 0 pg/mL
- IL-22 cytokine concentration (primary murine T-cells; [7]): 90.45 pg/mL
- IL-27 cytokine concentration (primary murine T-cells; [7]): 80.11 pg/mL
- TNF-α cytokine concentration (primary murine T-cells; [7]): 88.47 pg/mL
- IFN-γ cytokine concentration (primary murine T-cells; [8]): 1808.99 pg/mL
- IL-1 cytokine concentration (primary murine T-cells; [8]): 158.59 pg/mL
- IL-2 cytokine concentration (primary murine T-cells; [8]): 109.88 pg/mL
- IL-4 cytokine concentration (primary murine T-cells; [8]): 64.89 pg/mL
- IL-5 cytokine concentration (primary murine T-cells; [8]): 200.98 pg/mL
- IL-6 cytokine concentration (primary murine T-cells; [8]): 169.84 pg/mL
- IL-10 cytokine concentration (primary murine T-cells; [8]): 995.6 pg/mL
- IL-13 cytokine concentration (primary murine T-cells; [8]): 0 pg/mL
- IL-17 cytokine concentration (primary murine T-cells; [8]): 67 pg/mL
- IL-21 cytokine concentration (primary murine T-cells; [8]): 0 pg/mL
- IL-22 cytokine concentration (primary murine T-cells; [8]): 111.98 pg/mL
- IL-27 cytokine concentration (primary murine T-cells; [8]): 102.96 pg/mL
- TNF-α cytokine concentration (primary murine T-cells; [8]): 50.14 pg/mL
